In patent publication US9834558B2, “Substituted bridged urea analogs as sirtuin modulators” (GLAXOSMITHKLINE LLC, priority 2013, dated 2017):

Each compound was assayed against T1, SIRT1 (Homo sapiens, UniProt Q96EB6) (assay: Trp mass spectrometry assay of SIRT1 activation). Conditions: concentration giving 150% activation of SIRT1; Trp peptide substrate.
T1 sequence (Q96EB6 1-747): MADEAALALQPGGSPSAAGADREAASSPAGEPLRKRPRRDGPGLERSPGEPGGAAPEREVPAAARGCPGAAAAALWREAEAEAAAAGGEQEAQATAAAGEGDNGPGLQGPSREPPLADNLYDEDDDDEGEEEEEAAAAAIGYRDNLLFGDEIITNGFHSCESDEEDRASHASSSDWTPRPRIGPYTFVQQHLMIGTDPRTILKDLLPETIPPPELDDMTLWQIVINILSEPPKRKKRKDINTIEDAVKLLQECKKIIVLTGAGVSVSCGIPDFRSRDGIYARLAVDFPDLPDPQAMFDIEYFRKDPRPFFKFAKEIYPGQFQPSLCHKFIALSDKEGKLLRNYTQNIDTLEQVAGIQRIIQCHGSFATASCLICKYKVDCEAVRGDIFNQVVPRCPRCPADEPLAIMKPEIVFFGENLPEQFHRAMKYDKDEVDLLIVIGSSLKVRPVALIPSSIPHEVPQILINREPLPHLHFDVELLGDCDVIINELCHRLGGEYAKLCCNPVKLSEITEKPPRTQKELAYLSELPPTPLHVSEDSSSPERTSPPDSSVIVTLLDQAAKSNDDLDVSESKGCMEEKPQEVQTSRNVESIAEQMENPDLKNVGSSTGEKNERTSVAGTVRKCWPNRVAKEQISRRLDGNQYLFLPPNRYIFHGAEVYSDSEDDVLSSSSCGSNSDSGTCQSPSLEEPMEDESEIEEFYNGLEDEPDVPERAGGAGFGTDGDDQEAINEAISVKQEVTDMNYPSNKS
Assay type: biochemical
Procedure, shortened: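 Activation read-out: mass-spec measurement of O-acetyl-ADP-ribose or deacetylated Trp peptide versus compound-free controls, giving EC1.5 and Percent Maximum Activation. Reactions ran 25 min at 25 °C, pH 7.5, with 120 μM βNAD+, 0.5 μM acetylated p53-derived peptide and 10 nM His-tagged SIRT1.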

Row | Structure (SMILES) | Tryp AVG EC1.5 (μM)
1 | NCc1cnnn1-c1cccc(NC(=O)N2c3nc(-c4cccc(C(F)(F)F)c4)ccc3N3CC[C@H]2C3)c1 [Example 640] | A (A (EC1.5<1 μM))
2 | O=C(Nc1ccc(Oc2ccccc2)cc1)N1c2nc(-c3cccc(C(F)(F)F)c3)ccc2N2CC[C@H]1C2 [Example 641] | C (C (EC1.5>25 μM))
3 | CS(=O)(=O)Nc1cccc(NC(=O)N2c3nc(-c4cccc(C(F)(F)F)c4)ccc3N3CC[C@H]2C3)c1 [Example 642] | A (A (EC1.5<1 μM))
4 | NS(=O)(=O)c1ccc(NC(=O)N2c3nc(-c4cccc(C(F)(F)F)c4)ccc3N3CC[C@H]2C3)cc1 [Example 643] | A (A (EC1.5<1 μM))
5 | COc1cc(NC(=O)N2c3nc(-c4cccc(C(F)(F)F)c4)ccc3N3C[C@@H](O)[C@H]2C3)ncn1 [Example 644] | B (B (EC1.5 1-25 μM))
6 | O=C(Nc1cnccn1)N1c2nc(-c3cccc(C(F)(F)F)c3)ccc2N2C[C@@H](O)[C@H]1C2 [Example 645] | A (A (EC1.5<1 μM))
7 | O=C(Nc1nncs1)N1c2nc(-c3cccc(C(F)(F)F)c3)ccc2N2CC[C@H]1C2 [Example 646] | A (A (EC1.5<1 μM))
8 | CCc1nnc(NC(=O)N2c3nc(-c4cccc(C(F)(F)F)c4)ccc3N3CC[C@H]2C3)s1 [Example 647] | A (A (EC1.5<1 μM))
9 | O=C(Nc1nnc(-c2ccccc2)s1)N1c2nc(-c3cccc(C(F)(F)F)c3)ccc2N2CC[C@H]1C2 [Example 648] | A (A (EC1.5<1 μM))
10 | CC(C)(C)c1nnc(NC(=O)N2c3nc(-c4cccc(C(F)(F)F)c4)ccc3N3CC[C@H]2C3)s1 [Example 649] | B (B (EC1.5 1-25 μM))
11 | O=C(Nc1nnc(C(F)(F)F)s1)N1c2nc(-c3cccc(C(F)(F)F)c3)ccc2N2CC[C@H]1C2 [Example 650] | C (C (EC1.5>25 μM))
12 | O=C(Nc1nnc(-c2cccnc2)s1)N1c2nc(-c3cccc(C(F)(F)F)c3)ccc2N2CC[C@H]1C2 [Example 651] | A (A (EC1.5<1 μM))
13 | O=C(Nc1cccc(Br)n1)N1c2nc(-c3cccc(C(F)(F)F)c3)ccc2N2CC[C@H]1C2 [Example 652] | A (A (EC1.5<1 μM))
14 | O=C(Nc1cccc(-c2ccsc2)n1)N1c2nc(-c3cccc(C(F)(F)F)c3)ccc2N2CC[C@H]1C2 [Example 653] | A (A (EC1.5<1 μM))
15 | O=C(Nc1cccc(-c2ccoc2)n1)N1c2nc(-c3cccc(C(F)(F)F)c3)ccc2N2CC[C@H]1C2 [Example 654] | A (A (EC1.5<1 μM))
16 | O=C(Nc1cccc(-c2cccnc2)n1)N1c2nc(-c3cccc(C(F)(F)F)c3)ccc2N2CC[C@H]1C2 [Example 655] | A (A (EC1.5<1 μM))
17 | CCCn1cc(-c2cccc(NC(=O)N3c4nc(-c5cccc(C(F)(F)F)c5)ccc4N4CC[C@H]3C4)n2)cn1 [Example 656] | A (A (EC1.5<1 μM))
18 | Cc1noc(C)c1-c1cccc(NC(=O)N2c3nc(-c4cccc(C(F)(F)F)c4)ccc3N3CC[C@H]2C3)n1 [Example 657] | A (A (EC1.5<1 μM))
19 | O=C(Nc1cccc(C2=CCOCC2)n1)N1c2nc(-c3cccc(C(F)(F)F)c3)ccc2N2CC[C@H]1C2 [Example 658] | A (A (EC1.5<1 μM))
20 | NC(=O)c1ccc(NC(=O)N2c3nc(-c4cccc(C(F)(F)F)c4)ccc3N3CC[C@H]2C3)cc1 [Example 659] | A (A (EC1.5<1 μM))
21 | O=C(Nc1cccc(-c2cccnc2)c1)N1c2nc(-c3cccc(C(F)(F)F)c3)ccc2N2CC[C@H]1C2 [Example 660] | A (A (EC1.5<1 μM))
22 | O=C(NCCn1ccnc1)N1c2nc(-c3cccc(C(F)(F)F)c3)ccc2N2CC[C@H]1C2 [Example 661] | C (C (EC1.5>25 μM))
23 | O=C(Nc1cc(-c2cnco2)ccn1)N1c2nc(-c3cccc(C(F)(F)F)c3)ccc2N2C[C@@H](O)[C@H]1C2 [Example 662] | B (B (EC1.5 1-25 μM))
24 | O=C(Nc1cccnc1)N1c2nc(-c3cccc(C(F)(F)F)c3)ccc2N2C[C@@H](O)[C@H]1C2 [Example 663] | A (A (EC1.5<1 μM))
25 | COc1cc(NC(=O)N2c3nc(-c4cccc(C(F)(F)F)c4)ccc3N3C[C@@H](O)[C@H]2C3)nc(OC)n1 [Example 664] | B (B (EC1.5 1-25 μM))
26 | O=C(Nc1cccc(-c2cnco2)c1)N1c2nc(-c3cccc(C(F)(F)F)c3)ccc2N2C[C@@H](O)[C@H]1C2 [Example 665] | A (A (EC1.5<1 μM))
27 | O=C(Nc1ccc2[nH]ncc2c1)N1c2nc(-c3cccc(C(F)(F)F)c3)ccc2N2CC[C@H]1C2 [Example 666] | A (A (EC1.5<1 μM))

Row | Structure (SMILES) | Tryp AVG EC1.5 (μM)
28 | O=C(Nc1cccc(-c2ccccn2)c1)N1c2nc(-c3cccc(C(F)(F)F)c3)ccc2N2CC[C@H]1C2 [Example 667] | A (A (EC1.5<1 μM))
29 | CC(=O)c1ccc(NC(=O)N2c3nc(-c4cccc(C(F)(F)F)c4)ccc3N3CC[C@H]2C3)cc1 [Example 668] | A (A (EC1.5<1 μM))
30 | O=C(Nc1ccncn1)N1c2nc(-c3cccc(C(F)(F)F)c3)ccc2N2C[C@@H](O)[C@H]1C2 [Example 669] | B (B (EC1.5 1-25 μM))
31 | Cc1cncc(NC(=O)N2c3nc(-c4cccc(C(F)(F)F)c4)ccc3N3C[C@@H](O)[C@H]2C3)c1 [Example 670] | A (A (EC1.5<1 μM))
32 | CC(=O)c1cccc(NC(=O)N2c3nc(-c4cccc(C(F)(F)F)c4)ccc3N3CC[C@H]2C3)c1 [Example 671] | A (A (EC1.5<1 μM))
33 | O=C(Nc1ccc(Br)c(-c2cnco2)c1)N1c2nc(-c3cccc(C(F)(F)F)c3)ccc2N2CC[C@H]1C2 [Example 672] | A (A (EC1.5<1 μM))
34 | O=C(NCCCc1ccccn1)N1c2nc(-c3cccc(C(F)(F)F)c3)ccc2N2CC[C@H]1C2 [Example 673] | B (B (EC1.5 1-25 μM))
35 | O=C(NCCCc1cccnc1)N1c2nc(-c3cccc(C(F)(F)F)c3)ccc2N2CC[C@H]1C2 [Example 674] | B (B (EC1.5 1-25 μM))
36 | O=C(Nc1ccccn1)N1c2nc(-c3cccc(Cl)c3)ccc2N2C[C@@H](O)[C@H]1C2 [Example 675] | B (B (EC1.5 1-25 μM))
37 | Cc1cncc(NC(=O)N2c3nc(-c4cccc(Cl)c4)ccc3N3C[C@@H](O)[C@H]2C3)c1 [Example 676] | A (A (EC1.5<1 μM))
38 | Cc1cncc(NC(=O)N2c3nc(-c4cccc(Cl)c4)ccc3N3C[C@@H](O)[C@H]2C3)c1 [Example 677] | B (B (EC1.5 1-25 μM))
39 | O=C(Nc1cnccn1)N1c2nc(-c3cccc(Cl)c3)ccc2N2C[C@@H](O)[C@H]1C2 [Example 678] | C (C (EC1.5>25 μM))
40 | COc1cc(NC(=O)N2c3nc(-c4cccc(Cl)c4)ccc3N3C[C@@H](O)[C@H]2C3)ncn1 [Example 679] | B (B (EC1.5 1-25 μM))
41 | COc1cc(NC(=O)N2c3nc(-c4cccc(Cl)c4)ccc3N3C[C@@H](O)[C@H]2C3)nc(OC)n1 [Example 680] | B (B (EC1.5 1-25 μM))
42 | O=C(Nc1cccnc1)N1c2nc(-c3cccc(Cl)c3)ccc2N2C[C@@H](O)[C@H]1C2 [Example 681] | B (B (EC1.5 1-25 μM))
43 | O=C(Nc1cccnn1)N1c2nc(-c3cccc(Cl)c3)ccc2N2C[C@@H](O)[C@H]1C2 [Example 682] | B (B (EC1.5 1-25 μM))
44 | O=C(Nc1cccc(-c2cnco2)c1)N1c2nc(-c3cccc(Cl)c3)ccc2N2C[C@@H](O)[C@H]1C2 [Example 683] | A (A (EC1.5<1 μM))
45 | O=C(Nc1ccncn1)N1c2nc(-c3cccc(Cl)c3)ccc2N2C[C@@H](O)[C@H]1C2 [Example 684] | B (B (EC1.5 1-25 μM))
46 | O=C(Nc1cc(-c2cnco2)ccn1)N1c2nc(-c3cccc(Cl)c3)ccc2N2C[C@@H](O)[C@H]1C2 [Example 685] | B (B (EC1.5 1-25 μM))
47 | Cc1nc(NC(=O)N2c3nc(-c4cccc(Cl)c4)ccc3N3C[C@@H](O)[C@H]2C3)sc1C [Example 688] | B (B (EC1.5 1-25 μM))
48 | O=C(NCCCCn1ccnc1)N1c2nc(-c3cccc(C(F)(F)F)c3)ccc2N2CC[C@H]1C2 [Example 689] | B (B (EC1.5 1-25 μM))
49 | Cc1cncc(NC(=O)N2c3nc(-c4cncc(C(F)(F)F)c4)ccc3N3C[C@@H](O)[C@H]2C3)c1 [Example 690] | B (B (EC1.5 1-25 μM))
50 | O=C(Nc1cncc(F)c1)N1c2nc(-c3cncc(C(F)(F)F)c3)ccc2N2C[C@@H](O)[C@H]1C2 [Example 691] | B (B (EC1.5 1-25 μM))
51 | O=C1CN2C[C@H]1N(C(=O)Nc1cccc(-c3cnco3)c1)c1nc(-c3cccc(C(F)(F)F)c3)ccc12 [Example 692] | A (A (EC1.5<1 μM))
52 | O=C(Nc1cccc(-c2cnco2)n1)N1c2nc(-c3cccc(Cl)c3)ccc2N2C[C@@H](O)[C@H]1C2 [Example 693] | A (A (EC1.5<1 μM))
53 | O=C(Nc1ccccn1)N1c2nc(-c3cncc(C(F)(F)F)c3)ccc2N2C[C@@H](O)[C@H]1C2 [Example 694] | A (A (EC1.5<1 μM))
